The source of these data is ChEMBL document CHEMBL4402541, “β-Lactamase Inhibitors To Restore the Efficacy of Antibiotics against Superbugs” (J Med Chem, 2020).

Structures are written as SMILES. Values after ≈ are worked out from the molar mass of the structure shown.

Experiment [1] deals with Klebsiella pneumoniae. Briefly: Antibacterial activity against Klebsiella pneumoniae by CLSI based microdilution method. On the technique in general: Broth dilution looks for growth in wells or tubes with falling amounts of substance.
The test system of experiment [2] is Escherichia coli. The experiment in a line: Antibacterial activity against Escherichia coli by CLSI based microdilution method.
For experiment [3], the system named is Pseudomonas aeruginosa. The experiment in a line: Inhibition of Pseudomonas aeruginosa OXA-24/40 assessed as potentiation of piperacillin-induced antibacterial activity at 4 ug/ml by CLSI based broth microdilution method (reference value: > […] ug/ml).
The subject of experiment [4] is Pseudomonas aeruginosa. Briefly: Inhibition of Pseudomonas aeruginosa AmpC assessed as potentiation of piperacillin-induced antibacterial activity at 4 ug/ml by CLSI based broth microdilution method (reference value: > […] ug/ml).
Experiment [5] relates to Pseudomonas aeruginosa. Briefly: Inhibition of Pseudomonas aeruginosa KPC-2 assessed as potentiation of piperacillin-induced antibacterial activity at 4 ug/ml by CLSI based broth microdilution method (reference value: > […] ug/ml).
The nature of experiment [6]: Inhibition of NDM1 (unknown origin) using nitrocefin as substrate incubated for 10 mins by UV spectra analysis. On the set-up: species or system Bacteria.
The test system of experiment [7] is Klebsiella pneumoniae. Briefly: Potentiation of cefepime-induced antibacterial activity against Klebsiella pneumoniae at 8 ug/ml by CLSI based microdilution method. The format is functional.
In experiment [8] the test system is Escherichia coli. Briefly: Potentiation of cefepime-induced antibacterial activity against Escherichia coli at 8 ug/ml by CLSI based microdilution method. The format is functional.
The nature of experiment [9]: Inhibition of AmpC beta-lactamase (unknown origin) by Cheng-Prusoff equation analysis. Set-up: species or system Bacteria.
In experiment [10] the test system is Acinetobacter baumannii. The experiment in a line: Inhibition of OXA-24/40 in Acinetobacter baumannii assessed as potentiation of meropenem-induced antibacterial activity by CLSI based broth microdilution method.
The test system of experiment [11] is Acinetobacter baumannii. The experiment in a line: Inhibition of OXA-24/40 in Acinetobacter baumannii assessed as potentiation of imipenem-induced antibacterial activity by CLSI based broth microdilution method.
Experiment [12] deals with Staphylococcus. The experiment in a line: Antibacterial activity against methicillin-sensitive Staphylococcus. The format is functional.
The test system of experiment [13] is Acinetobacter baumannii. The experiment in a line: Antibacterial activity against Acinetobacter baumannii JC12/04 clinical isolate harboring OXA-24/40 infected in BALB/c mouse pneumonia model assessed as reduction in bacterial burden by measuring bacterial growth at 50 mg,kg, im after 22 hrs co-treatment with imipenem. Type of experiment: functional.
Experiment [14] has as its system Acinetobacter baumannii. Briefly: Antibacterial activity against Acinetobacter baumannii ATCC 17978 harboring OXA-23 infected in BALB/c mouse pneumonia model assessed as reduction in bacterial burden by measuring bacterial growth at 50 mg,kg, im after 22 hrs co-treatment with imipenem. The format is functional.
Experiment [15] has as its system Acinetobacter baumannii. Briefly: Inhibition of Acinetobacter baumannii OXA-24 by spectrophotometry relative to control. The conditions noted are these: concentration not given here.
Experiment [16] has as its system Beta-lactamase (Acinetobacter baumannii), Q8RLA6 [Y112A]. The experiment in a line: Inhibition of Acinetobacter baumannii OXA-24 Y112A mutant by spectrophotometric method relative to control. The settings on record: concentration not given here.
Experiment [17] deals with Beta-lactamase (Acinetobacter baumannii), Q8RLA6 [Y112A,M223A]. Briefly: Inhibition of Acinetobacter baumannii OXA-24 Y112A/M223A mutant by spectrophotometric method relative to control. The settings on record: concentration not given here.
Experiment [18] deals with Acinetobacter baumannii. The experiment in a line: Antibacterial activity against Acinetobacter baumannii ATCC 17978 harboring OXA-24/40 infected in BALB/c mouse pneumonia model assessed as reduction in bacterial burden by measuring bacterial growth at 50 mg,kg, im after 22 hrs co-treatment with imipenem. Type of experiment: functional.
The test system of experiment [19] is Acinetobacter baumannii. The experiment in a line: Antibacterial activity against Acinetobacter baumannii Ab1 clinical isolate harboring OXA-23 infected in BALB/c mouse pneumonia model assessed as reduction in bacterial burden by measuring bacterial growth at 50 mg,kg, im after 22 hrs co-treatment with imipenem. Type of experiment: functional.
Experiment [20] in a line: Inhibition of Acinetobacter baumannii OXA-24 by spectrophotometric method.
Experiment [21] deals with Escherichia coli. Briefly: Antibacterial activity against Escherichia coli harboring beta-lactamase infected in mouse relative to control. The format is functional.
In experiment [22] the test system is Escherichia coli. The experiment in a line: Inhibition of Escherichia coli PBP2 assessed as ratio of Kinact to Ki by SDS-PAGE based fluorescence assay.
The subject of experiment [23] is Acinetobacter baumannii. The experiment in a line: Inhibition of Acinetobacter baumannii PBP2 assessed as ratio of Kinact to Ki by SDS-PAGE based fluorescence assay.
In experiment [24] the test system is Enterobacteriaceae. Briefly: Inhibition of OXA-181 in Enterobacteriaceae assessed as potentiation of imipenem-induced antibacterial activity by CLSI based agar dilution method. In general terms: Agar dilution tests growth on a series of plates holding different concentrations.
The test system of experiment [25] is Enterobacteriaceae. The experiment in a line: Inhibition of OXA-181 in Enterobacteriaceae assessed as potentiation of meropenem-induced antibacterial activity by CLSI based agar dilution method.
In experiment [26] the test system is Enterobacteriaceae. The experiment in a line: Inhibition of Beta-lactamase KPC in Enterobacteriaceae assessed as potentiation of imipenem-induced antibacterial activity by CLSI based agar dilution method.
In experiment [27] the test system is Enterobacteriaceae. Briefly: Inhibition of Beta-lactamase OXA-48 in Enterobacteriaceae assessed as potentiation of imipenem-induced antibacterial activity by CLSI based agar dilution method.
Experiment [28] deals with Enterobacteriaceae. The experiment in a line: Inhibition of Beta-lactamase OXA-48 in Enterobacteriaceae assessed as potentiation of meropenem-induced antibacterial activity by CLSI based agar dilution method.
Experiment [29] deals with Enterobacteriaceae. Briefly: Inhibition of Beta-lactamase KPC in Enterobacteriaceae assessed as potentiation of meropenem-induced antibacterial activity by CLSI based agar dilution method.
Experiment [30] deals with Beta-lactamase TEM (Escherichia coli, UniProt P62593). Briefly: Inhibition of Escherichia coli TEM-1 beta-lactamase.
Experiment [31] concerns Pseudomonas aeruginosa. The experiment in a line: Antibacterial activity against Pseudomonas aeruginosa haboring KPC-2 assessed as reduction in microbial growth by CLSI based broth microdilution method. Type of experiment: functional.
The test system of experiment [32] is Pseudomonas aeruginosa. Briefly: Antibacterial activity against Pseudomonas aeruginosa haboring AmpC assessed as reduction in microbial growth by CLSI based broth microdilution method. The format is functional.
Experiment [33] has as its system Pseudomonas aeruginosa. The experiment in a line: Antibacterial activity against Pseudomonas aeruginosa haboring OXA-24/40 assessed as reduction in microbial growth by CLSI based broth microdilution method. The format is functional.

Sequence of Beta-lactamase (Acinetobacter baumannii), Q8RLA6 [Y112A,M223A] (Q8RLA6 whole entry Y112A/M223A): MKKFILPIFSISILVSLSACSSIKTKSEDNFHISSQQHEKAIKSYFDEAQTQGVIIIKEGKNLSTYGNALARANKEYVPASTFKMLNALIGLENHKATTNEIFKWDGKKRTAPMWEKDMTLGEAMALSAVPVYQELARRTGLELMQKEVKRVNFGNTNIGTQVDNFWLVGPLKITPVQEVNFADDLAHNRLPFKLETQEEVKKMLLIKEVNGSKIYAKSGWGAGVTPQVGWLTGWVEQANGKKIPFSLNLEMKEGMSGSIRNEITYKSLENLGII
Sequence of Beta-lactamase (Acinetobacter baumannii), Q8RLA6 [Y112A] (Q8RLA6 whole entry Y112A): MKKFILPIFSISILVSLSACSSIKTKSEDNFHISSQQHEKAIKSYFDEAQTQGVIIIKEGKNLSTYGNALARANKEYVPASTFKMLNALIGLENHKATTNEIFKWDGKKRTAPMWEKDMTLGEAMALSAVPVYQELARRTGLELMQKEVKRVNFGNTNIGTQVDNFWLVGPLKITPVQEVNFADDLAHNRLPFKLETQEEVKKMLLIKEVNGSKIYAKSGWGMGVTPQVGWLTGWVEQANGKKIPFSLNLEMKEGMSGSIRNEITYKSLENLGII
Sequence of Beta-lactamase TEM (P62593 whole entry): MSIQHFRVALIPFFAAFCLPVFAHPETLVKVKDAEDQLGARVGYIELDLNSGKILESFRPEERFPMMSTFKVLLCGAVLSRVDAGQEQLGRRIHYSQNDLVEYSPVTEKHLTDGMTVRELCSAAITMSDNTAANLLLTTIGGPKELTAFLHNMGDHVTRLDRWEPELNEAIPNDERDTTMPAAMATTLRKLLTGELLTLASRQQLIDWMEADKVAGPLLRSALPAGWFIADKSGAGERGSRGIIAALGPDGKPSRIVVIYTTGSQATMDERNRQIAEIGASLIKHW

A word on the MIC90: it is an inhibitory concentration at the 90% level, which refers to growth in some studies and to a panel of isolates in others. Regarding `CO/N=C(\C(=O)N[C@@H]1C(=O)N2C(C(=O)[O-])=C(C[N+]3(C)CCCC3)CS[C@H]12)c1csc(N)n1` [CEFEPIME], the MIC90 is 16 µg/mL (≈ 33.3 µM) in [1] and above 64 µg/mL in experiment [2].

Turning to `NC(=O)[C@@H]1CC[C@@H]2CN1C(=O)N2OS(=O)(=O)O`, the values for the MIC in experiment [3], in [4] and in [5] were 64 µg/mL, 8 µg/mL and 8 µg/mL, respectively.

For the compound `CC1=C[C@@H](CO)N2C[C@@H]1N(OS(=O)(=O)O)C2=O`, the figures for the MIC in [3], in [4] and in experiment [5] were 64 µg/mL, 32 µg/mL and 8 µg/mL, respectively.

What is called IC50 is the midpoint of a concentration-inhibition curve. Compound `N[C@@H](CN[C@@H](CN[C@@H](CC(=O)O)C(=O)O)C(=O)O)C(=O)O` gave a 50% inhibitory concentration (IC50) in experiment [6] of 9.3 µM. This counts as single-digit micromolar.

With `N[C@@H](CN[C@H](CN[C@@H](CC(=O)O)C(=O)O)C(=O)O)C(=O)O`, half-maximal inhibition in experiment [6] (IC50) was put at 12.5 µM. This IC50 and that of the compound before are within 1.5-fold of each other.

In the case of `Cn1cc[n+](C[C@@]2(C)[C@H](C(=O)[O-])N3C(=O)C[C@H]3S2(=O)=O)n1` [ENMETAZOBACTAM], the MIC90 came out at 1 µg/mL in [7] and 0.5 µg/mL in [8].

In the case of `C=C(C)C1=C[C@@H](COC)N2C[C@@H]1N(OS(=O)(=O)O)C2=O`, the MIC in [3], in [4] and in experiment [5] was above 64 µg/mL throughout.

As for `CC1=C[C@@H](C(N)=O)N2C[C@@H]1N(OS(=O)(=O)O)C2=O`, the MIC came out at 16 µg/mL in experiment [3], 8 µg/mL in experiment [4] and 4 µg/mL in experiment [5].

`N[C@@H](CN[C@@H](CN[C@H](CC(=O)O)C(=O)O)C(=O)O)C(=O)O` returned an IC50 in experiment [6] of 11.6 µM.

Broadly, the Ki is a measure of affinity in units of concentration, obtained from inhibition or displacement. `O=C(NCB(O)O)S(=O)(=O)c1cc(-c2nnn[nH]2)cc(C(F)(F)F)c1` showed a Ki in experiment [9] of 0.05 nM.

`C[C@]1(Cn2ccnn2)[C@H](C(=O)O)N2C(=O)C[C@H]2S1(=O)=O`: the MIC in [10] and in [11] was 16 µg/mL throughout.

Compound `O=C(NCB(O)O)S(=O)(=O)c1cc(Cl)cc(-c2nnn[nH]2)c1` yielded a Ki in [9] of 0.2 nM. That is a sub-nanomolar value.

`Cn1cc(/C=C2/C(=O)N3C(C(=O)O)=CS[C@H]23)nn1` had an MIC in experiment [12] of 1 µg/mL (≈ 3.78 µM).

One may read the inhibition as the relative decrease from the control value, in per cent. Turning to `C[C@]1(COC(=O)Cc2ccc(O)c(O)c2)[C@H](C(=O)O)N2C(=O)/C(=C/c3ccccn3)[C@H]2S1(=O)=O`, the Activity came to 4.5 log10CFU/g in experiment [13], 4 log10CFU/g in experiment [14], 2.5 log10CFU/g in [18] and 1.7 log10CFU/g in experiment [19]. Besides, the MIC in [10] and in experiment [11] was 1 µg/mL in each case. Besides, the inhibition in [15], in [16] and in [17] was 100% throughout. Also, the affinity in experiment [20] corresponds to a Ki of 0.7 µM.

With `CC1=C[C@@H](C#N)N2C[C@@H]1N(OS(=O)(=O)O)C2=O`, the MIC in experiment [3] was 8 µg/mL; in experiment [4] it was above 64 µg/mL; in experiment [5], 64 µg/mL.

In the case of `O=C(NCB(O)O)S(=O)(=O)c1ccnc(-c2nnn[nH]2)c1`, affinity in experiment [9] was put at a Ki of 0.8 nM. In [21], this compound returned an Activity of 65%.

On to `CC1=C[C@@H]2CN(C(=O)N2OS(=O)(=O)O)[C@@H]1C(N)=O`, for which the Ratio in [22] was found to be 1 ×10⁴ /M/s; in [23] it was 1 ×10³ /M/s. Besides, the MIC came out at 8 µg/mL in experiment [3], 2 µg/mL in experiment [4] and 4 µg/mL in experiment [5].

For `N#C[C@@H]1CC[C@@H]2CN1C(=O)N2OS(=O)(=O)O`, the MIC in [24], in experiment [25], in [26], in [27], in experiment [28] and in [29] was below 2 µg/mL in each case.

With `N[C@H](CN[C@H](CN[C@@H](CC(=O)O)C(=O)O)C(=O)O)C(=O)O`, half-maximal inhibition in [6] (IC50) required 10.2 µM.

`N[C@H](CN[C@@H](CN[C@@H](CC(=O)O)C(=O)O)C(=O)O)C(=O)O` displayed an IC50 in experiment [6] of 11.9 µM.

Take `CC(=O)N[C@@H](Cc1cccc(C(=O)O)c1)B(O)O`: in [30], the Ki turned out to be 0.11 µM.

As to `CCN1CCN(C(=O)N[C@@H](C(=O)N[C@@H]2C(=O)N3[C@@H]2SC(C)(C)[C@@H]3C(=O)O)c2ccccc2)C(=O)C1=O` [PIPERACILLIN], the MIC in experiment [31], in experiment [32] and in experiment [33] was above 64 µg/mL in each case.
